Calls of active or inactive are those of the source. The rule behind the calls is not given here.

What is called EC50 is the concentration at which the effect is half-maximal. By IC50 is commonly meant the concentration at which inhibition is half-maximal.

For assay [1], the system named is Hepatitis C virus. Kind of assay: Antiviral activity against Hepatitis C virus infected in Ava5 cells assessed as inhibition of viral RNA replication incubated for 72 hrs by RT-PCR analysis. The class given is functional, organism-based. The note with it: for Activity: Hepacivirus hominis.
For assay [2], the system named is Hepatitis C virus. Briefly: Antiviral activity against HCV infected in human Huh-7 cells assessed as inhibition of viral RNA replication incubated for 24 hrs by ribonuclease protection assay. The following applies: Huh-7, 24 h. The class given is functional, organism-based, Hepacivirus hominis.
The test system of assay [3] is Hepatitis C virus. Kind of assay: Antiviral activity against HCV genotype 1a infected in GLuc-1 cells. In kind it is functional, organism-based, Hepacivirus hominis.
The test system of assay [4] is Hepatitis C virus. Kind of assay: Anti-viral activity against HCV genotype 1b infected in human Huh-luc cells. The class given is functional, organism-based, Hepacivirus hominis.
For assay [5], the system named is Hepatitis C virus. Kind of assay: Anti-viral activity against HCV genotype 2a infected in 2aLucNeo-25 cells. The class given is functional, organism-based, Hepacivirus hominis.
Assay [6] concerns Hepatitis C virus. Briefly: Anti-viral activity against HCV genotype 2a infected in Lunet-CD81 cells. In kind it is functional, organism-based, Hepacivirus hominis.

On to `C[C@@]1(O)[C@H](O)[C@@H](CO)O[C@H]1c1csc2c(N)ncnc12`, for which the outcome in the assay with Hepatitis C virus [1] was inactive.

With `C[C@@]1(O)[C@H](O)[C@@H](CO)O[C@H]1n1cnc2c(N)ncnc21`, the EC50 with Hepatitis C virus [2] is 300 nM; with Hepatitis C virus [3], 230 nM; with Hepatitis C virus [4], 300 nM; in the assay with Hepatitis C virus [5] it was 1430 nM; in the assay with Hepatitis C virus [6], 300 nM. Consider `C[C@@]1(O)[C@H](O)[C@@H](CO)O[C@H]1c1coc2c(=S)[nH]cnc12`, for which the outcome with Hepatitis C virus [1] was inactive. Regarding `C[C@@]1(O)[C@H](O)[C@@H](CO)O[C@H]1c1coc2c(N)nc(N)nc12`, in the assay with Hepatitis C virus [1], the result was inactive. The same measure, in the same setting: then `C[C@@]1(O)[C@H](O)[C@@H](CO)O[C@H]1c1coc2c(=O)[nH]cnc12`, with “inactive”; and `C[C@@]1(O)[C@H](O)[C@@H](CO)O[C@H]1c1c[nH]c2c(=O)[nH]c(N)nc12`, with “inactive”. In the case of `C[C@@]1(O)[C@H](O)[C@@H](CO)O[C@H]1c1coc2c(=O)[nH]c(N)nc12`, the outcome in the assay with Hepatitis C virus [1] was inactive. Regarding `C[C@@]1(O)[C@H](O)[C@@H](COP(=O)(O)OP(=O)(O)OP(=O)(O)O)O[C@H]1c1coc2c(N)ncnc12`, in the assay with Hepatitis C virus [1] (Ava5, 72 h), the IC50 was determined as 5000 nM.

(Values after ChEMBL document CHEMBL6087385, “Synthesis and biological evaluation of Ribo 7-N/O/S pyrimidine 9-deaza C-nucleoside analogs as new antiviral agents for inhibiting HCV RNA-dependent RNA polymerases” (Eur J Med Chem, 2024).)
